# Measurements as given in the supplement of paper PMC10307832.
# Experiments:
# Assay in all cases: relative viability (nuclei count vs DMSO), 5 days (fraction); higher = more cells survive
# [1] = tested on: SK-LU-1
# Outline: (§1)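 For relative viability, nuclei counts in treated wells were divided by those in vehicle wells. Lung cancer cell lines had been pin-tool dosed in 1536-well plates the day after seeding and cultured for 5 days, then fixed and stained in one step (final 0.05% Triton X-100, 1% formaldehyde, 1 ug/ml Hoechst) and imaged at 4×. Doses were one drug alone or a fixed anchor-drug dose plus five library-drug doses (not always all listed) in √10 steps, and values are duplicate-plate medians.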
# [2] = tested on: NCI-H2126
# Outline: as §1
# [3] = tested on: NCI-H1395
# Outline: as §1
# [4] = tested on: LC-2-ad
# Outline: as §1
# [5] = tested on: NCI-H1944
# Outline: as §1
# [6] = tested on: HCC-366
# Outline: as §1
# [7] = tested on: HOP-62
# Outline: as §1
# [8] = tested on: EMC-BAC-2
# Outline: as §1
# [9] = tested on: NCI-H23
# Outline: as §1
# [10] = tested on: NCI-H838
# Outline: as §1
# [11] = tested on: NCI-H2023
# Outline: as §1
compound,measurement,setting,value
Nc1ccn([C@@H]2O[C@H](CO)[C@@H](O)[C@@H]2O)c(=O)n1 [Cytarabine] + Cc1nc(NC(=O)N2CCC[C@H]2C(N)=O)sc1-c1ccnc(C(C)(C)C(F)(F)F)c1 [Alpelisib] (partner 2 µM),relative viability,[1]; first compound 0.05 µM,0.62
same,relative viability,[1]; first compound 0.1581 µM,0.347
same,relative viability,[1]; first compound 0.5 µM,0.303
same,relative viability,[2]; first compound 0.005 µM,0.765
same,relative viability,[2]; first compound 0.01581 µM,0.597
same,relative viability,[2]; first compound 0.05 µM,0.694
same,relative viability,[2]; first compound 0.1581 µM,0.564
same,relative viability,[2]; first compound 0.5 µM,0.408
same,relative viability,[3]; first compound 0.005 µM,1.04
same,relative viability,[3]; first compound 0.01581 µM,0.858
same,relative viability,[3]; first compound 0.05 µM,0.583
same,relative viability,[3]; first compound 0.1581 µM,0.423
same,relative viability,[3]; first compound 0.5 µM,0.441
same,relative viability,[4]; first compound 0.005 µM,0.898
same,relative viability,[4]; first compound 0.01581 µM,0.785
same,relative viability,[4]; first compound 0.05 µM,0.802
same,relative viability,[4]; first compound 0.1581 µM,0.441
same,relative viability,[4]; first compound 0.5 µM,0.228
same,relative viability,[5]; first compound 0.005 µM,0.563
same,relative viability,[5]; first compound 0.01581 µM,0.361
same,relative viability,[5]; first compound 0.05 µM,0.364
same,relative viability,[5]; first compound 0.1581 µM,0.183
same,relative viability,[5]; first compound 0.5 µM,0.144
same,relative viability,[6]; first compound 0.005 µM,0.281
same,relative viability,[6]; first compound 0.01581 µM,0.228
same,relative viability,[6]; first compound 0.05 µM,0.104
same,relative viability,[6]; first compound 0.1581 µM,0.047
same,relative viability,[6]; first compound 0.5 µM,0.019
same,relative viability,[7]; first compound 0.005 µM,0.793
same,relative viability,[7]; first compound 0.01581 µM,0.394
same,relative viability,[7]; first compound 0.05 µM,0.348
same,relative viability,[7]; first compound 0.1581 µM,0.0724
same,relative viability,[7]; first compound 0.5 µM,0.102
same,relative viability,[8]; first compound 0.005 µM,0.64
same,relative viability,[8]; first compound 0.01581 µM,0.658
same,relative viability,[8]; first compound 0.05 µM,0.598
same,relative viability,[8]; first compound 0.1581 µM,0.193
same,relative viability,[8]; first compound 0.5 µM,0.182
same,relative viability,[9]; first compound 0.005 µM,0.575
same,relative viability,[9]; first compound 0.01581 µM,0.547
same,relative viability,[9]; first compound 0.05 µM,0.373
same,relative viability,[9]; first compound 0.1581 µM,0.195
same,relative viability,[9]; first compound 0.5 µM,0.127
same,relative viability,[10]; first compound 0.005 µM,0.886
same,relative viability,[10]; first compound 0.01581 µM,1.12
same,relative viability,[10]; first compound 0.05 µM,0.909
same,relative viability,[10]; first compound 0.1581 µM,0.452
same,relative viability,[10]; first compound 0.5 µM,0.252
same,relative viability,[11]; first compound 0.005 µM,0.489
same,relative viability,[11]; first compound 0.01581 µM,0.391
same,relative viability,[11]; first compound 0.05 µM,0.182
same,relative viability,[11]; first compound 0.1581 µM,0.117
same,relative viability,[11]; first compound 0.5 µM,0.0764
